According to patent US10196344B2, “Glaucocalyxin a derivative and preparation method and application thereof” (SUZHOU PHARMAVAN CANCER RESEARCH CENTER CO., LTD., priority 2015, dated 2019):
“Also recorded” adds a separate entry of the source. Like-named read-outs stand apart in the source and are kept apart here.

Assays:
[1] = test system: U251 cell line of glioma; assay: Cell proliferation assay (MTT), U251; assay type: cell-based; conditions: 1-100 μmol/L, 48 h, FIG. 7-8
Experimental: (§1) Cell Proliferation Assay (MTT): The experiment assaying the inhibition of dimethylamino glaucocalyxin A hydrochloride salt (hereinafter referred to as GH02) and glaucocalyxin A (i.e. GLA) on cell proliferation of cancer cell lines was performed as follows: cells of cancer cell lines were adjusted to a density of 10^4/100 μL and were seeded into 96-well plates at 100 μL per well and cultured overnight until the cells were completely adherent and grown up to 70-80% confluence. […] Subsequently, the supernatant was removed, 150 μL DMSO was added to each well and incubated with shaking for 10 min, and then the absorbance was measured at 490 nm on a microplate reader. Inhibitory rate of the cell proliferation=[(absorbance of the control group−absorbance of blank)−(absorbance of the medication group−absorbance of blank)]/(absorbance of the control group−absorbance of blank)% As shown in FIG. 4 to FIG. 6, MDA-MB-231 and MCF-7 are cell lines of breast cancer, SGC-7901 is a cell line of gastric cancer, U251 is a cell line of glioma, and A549 is a cell line of lung cancer.

[2] = test system: MDA-MB-231 breast cancer cell line; assay: Cell proliferation assay (MTT), MDA-MB-231; assay type: cell-based; conditions: 48 h; for Inhibitory rate of the cell proliferation versus concentration: 1-100 μmol/L; for IC50 for the inhibition of proliferation, compared among five cell lines: MTT
Experimental: Cell Proliferation Assay (MTT): The experiment assaying the inhibition of dimethylamino glaucocalyxin A hydrochloride salt (hereinafter referred to as GH02) and glaucocalyxin A (i.e. GLA) on cell proliferation of cancer cell lines was performed as follows: cells of cancer cell lines were adjusted to a density of 10^4/100 μL and were seeded into 96-well plates at 100 μL per well and cultured overnight until the cells were completely adherent and grown up to 70-80% confluence. The mother liquid of GH02 and GLA (both of which concentrations were 100 mM) were diluted with complete medium, respectively, to final concentrations of 1, 3.125, 6.25, 12.5, 25, 50, 100 μmol/L, and then such diluted solutions were added into wells of 96-well plates, with each concentration being performed in 4 replicates, and the group without cells acting as blank control, and then incubated in the incubator at […]. After incubation for 48 h, MTT was added to each well to a final concentration of 0.5 mg/ml and further incubated in the incubator at […] for 4 h. Subsequently, the supernatant was removed, 150 μL DMSO was added to each well and incubated with shaking for 10 min, and then the absorbance was measured at 490 nm on a microplate reader. Inhibitory rate of the cell proliferation=[(absorbance of the control group−absorbance of blank)−(absorbance of the medication group−absorbance of blank)]/(absorbance of the control group−absorbance of blank)% As shown in FIG. 4 to FIG. 6, MDA-MB-231 and MCF-7 are cell lines of breast cancer, SGC-7901 is a cell line of gastric cancer, U251 is a cell line of glioma, and A549 is a cell line of lung cancer.

[3] = background statement; cited from earlier work
[4] = background statement; cited from earlier work; remark: listed apart in the source
[5] = test system: A549 cell line of lung cancer; assay: Cell proliferation assay (MTT), A549; assay type: cell-based; conditions: 1-100 μmol/L, 48 h, FIG. 7-8
Experimental: as §1

[6] = test system: MCF-7 cell line of breast cancer; assay: Cell proliferation assay (MTT), MCF-7; assay type: cell-based; conditions: 1-100 μmol/L, 48 h, FIG. 7-8
Experimental: as §1

[7] = test system: SGC-7901 cell line of gastric cancer; assay: Cell proliferation assay (MTT), SGC-7901; assay type: cell-based; conditions: 1-100 μmol/L, 48 h, FIG. 7-8
Experimental: as §1

[8] = Water solubility; assay type: physicochemical; conditions: found by the inventors by means of experiments
[9] = Oral bioavailability / in vivo pharmacokinetics; conditions: when used as a drug; found by the inventors by means of experiments

IC50 for the inhibition of proliferation, compared among five cell lines ([2]; FIG. 4-6) | water solubility [8] | IC50 for the inhibition of proliferation, compared among five cell lines ([2]; FIG. 4-6, hydrochloride) | oral bioavailability [9] | Structure (SMILES) | Inhibitory rate of the cell proliferation versus concentration [1] | Inhibitory rate of the cell proliferation versus concentration ([2]; FIG. 7-8) | water solubility [3] | bioavailability in vivo [4] | half-life in vivo [4] | Inhibitory rate of the cell proliferation versus concentration [5] | Inhibitory rate of the cell proliferation versus concentration [6] | Inhibitory rate of the cell proliferation versus concentration [7] | Inhibitory rate of the cell proliferation versus concentration ([2]; FIG. 7-8, hydrochloride)
lowest IC50 values |  |  |  | C=C1C(=O)C23C(O)C1CCC2[C@]1(C)CCC(=O)C(C)(C)[C@H]1C[C@H]3O (stereo partly drawn) [GLA, Kaur-16-ene-3,15-dione,(7α, 14R)—] | increased with the increase of the concentration of GLA | increased with the increase of the concentration of GLA; also recorded: highest inhibitory rate | poor water solubility | low bioavailability | short half-life | increased with the increase of the concentration of GLA | increased with the increase of the concentration of GLA | increased with the increase of the concentration of GLA | 
 | good water solubility | lowest IC50 values | high oral bioavailability | CN(C)CC1C(=O)C23C(O)C1CCC2[C@]1(C)CCC(=O)C(C)(C)[C@H]1C[C@H]3O.Cl (some centres unmarked) [GH02, dimethylamino glaucocalyxin A hydrochloride] | increased with the increase of the concentration of GH02 |  |  |  |  | increased with the increase of the concentration of GH02 | increased with the increase of the concentration of GH02 | increased with the increase of the concentration of GH02 | increased with the increase of the concentration of GH02; also recorded: highest inhibitory rate
